Results on five compounds are retold here after US20250003877A1, “Silyl Bridged Dyes” (priority 2021, published 2025).

Data set [1] is classed as physicochemical. An excerpt: Strain-promoted lowering of the Si σ* energy in cyclic silanes is another approach to red-shift emission. Treatment of 1-1 with cyclohexyl dichlorosilane yielded the expected Si-rhodamine dye (Scheme 1A). However, the reactions with the corresponding five and four-membered ring analogs yielded many side products. The cyclopentyl analog 028 was obtained in good yield through an alternate synthetic pathway (Scheme 4), but the four-membered ring analog could not be isolated by either route. The silacyclopentyl analog is red-shifted compared to 001 and compound 014, consistent with a strain-induced LUMO-lowering effect (Table 3).
Scheme 10. Instability of silacyclopentyl dye 028 in solution. Proposed ring-opened product in methanol (the solvent used for HRMS analysis).

In data set [2] the test system is hairpin DNA oligonucleotide (hpDNA). Kind of data set: Photophysical properties after 2 h treatment with hairpin DNA (hpDNA). Format: physicochemical. The note with it: for Brightness (ε × ϕ) / ε (M^−1 cm^−1) / λem (nm) / λex (nm) / ϕ: +30 μM hpDNA, 2 h; for brightness: in the presence of 30 μM hpDNA. On the procedure:
Absorption and fluorescence spectra were measured on a Horiba Duetta fluorescence and absorbance spectrometer in quartz cuvettes (Starna Cells, catalog #3-Q-10). Extinction coefficients were calculated from plots of absorption versus concentration. Quantum yields were measured on a Hamamatsu Quantaurus QY C-11347-11 absolute quantum yield integrating sphere spectrometer at absorption values of <0.1 in side-arm quartz cuvettes (Hamamatsu cat #A10095-02). All measurements were performed in PBS (9.0 g/l NaCl, 0.795 g/l Na2HPO4, 0.144 g/l KH2PO4, pH 7.4, Corning cat #21-040-CV), ethanol, or 0.1% TFA/ethanol and prepared from stock solutions of dyes in DMSO, with final DMSO <1%. […] Selected KLZ values were determined in 1:1 v/v dioxane:water as previously described.
Spirolactonizable Si-rhodamines are particularly valuable for live cell imaging. They typically exist in a nonfluorescent, neutral cell-permeable form that can convert to a highly fluorescent form when bound to particular targets, such as DNA or the protein HaloTag®. This fluorogenic response occurs when the nonfluorescent spirolactone ring opens, generating a zwitterionic dye (Scheme 12). To date, all examples of fluorogenic Si-rhodamine dyes have been modified with targeting groups directly on the pendant phenyl ring that forms the spirolactone. It is not obvious whether this same fluorogenic behavior would also occur with dyes that are modified with targeting groups on the more distal silyl group. SiR-DNA (Spirochrome) is a commercially-available Si-rhodamine dye with the DNA-targeting ligand Hoechst 33258 attached to the pendant phenyl ring (Schemes 13A-C), allowing specific labeling of the nucleus in live cells. Therefore, two Hoechst 33258-modified Si-Bridge isomers were synthesized via direct reaction of the phenol of Hoechst 33258 with the isomeric Si-iodopropyl dyes compounds 047 and 048 (Scheme 6), and then assessed their ability to label the nucleus in live HeLa cells compared to SiR-DNA (FIGS. 2A-2C). […] To gain more insight into the molecular basis for this difference, the photophysical properties of compounds 061 and 062 were evaluated in vitro in the presence and absence of a hairpin DNA oligonucleotide (hpDNA) (Table 4). Like SiR-DNA, these dyes are quenched and virtually nonfluorescent in PBS, with quantum yields <0.02 and brightness of <130 M^−1 cm^−1.

The test system of data set [3] is nucleus in live HeLa cells. Kind of data set: No-wash live cell imaging of the nucleus with a Si-bridge dye. The format is cell-based. To be noted: confocal, Cy5 channel. The procedure: HeLa cells were cultured in Dulbecco's modified Eagle medium (DMEM, from GIBCO, catalog no. 11995065) supplemented with 10% fetal bovine serum (FBS) (GIBCO, catalog no. 10437028) and 1% penicillin-streptomycin (Sigma) at 37° C. in a 5% CO2 incubator. For imaging, cells were seeded in 35 mm glass bottom dishes (Cellvis, catalog no. D35-28-O—N). […] Dyes fluorescing in the Cy5 channel were excited with the HeNe (633 nm) laser at a 15% intensity and detected through a 640-615 band pass filter, and EGFP was excited with the Argon (488 nm) laser. Image analysis was performed using Leica LAS X SP8 software and ImageJ software.

In data set [4] the target is T1, SNAP-tag (pSNAPf-H2B) in HeLa cells (Homo sapiens, UniProt P16455, A127T/A154D/C150Q/C62A/E30R/G131K/G132T/G153L/K125A/K32I/L33F/M134L/N157G/Q115S/Q116H/R128A/R135S/S151G/S152D/S159E).
T1 construct: host or cells: HeLa cells, transient transfection with Lipofectamine 2000
T1 sequence (P16455 1-182 E30R/K32I/L33F/C62A/Q115S/Q116H/K125A/A127T/R128A/G131K/G132T/M134L/R135S/C150Q/S151G/S152D/G153L/A154D/N157G/S159E limits assumed): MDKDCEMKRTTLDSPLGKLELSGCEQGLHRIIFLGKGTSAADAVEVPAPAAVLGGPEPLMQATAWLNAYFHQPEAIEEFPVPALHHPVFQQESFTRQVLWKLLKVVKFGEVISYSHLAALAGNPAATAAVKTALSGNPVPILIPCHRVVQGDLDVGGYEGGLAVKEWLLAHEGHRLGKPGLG
Kind of data set: Live cell imaging of SNAP-tag-expressing cells with Si-bridge dyes. Format: cell-based. To be noted: 3 μM dye, 30 min, 37° C., washed, HeLa transfected with pSNAPf-H2B. On the procedure:
HeLa cells were seeded in 35 mm glass bottom dishes (Cellvis, catalog no. D35-28-O-N), and transfected with […] control plasmid (Addgene #101124). Transient transfections were performed using Lipofectamine 2000 (Invitrogen, catalog no. 1168019) following the manufacturer's instructions. HeLa cell labeling and confocal imaging were performed 24 hr after transfection. Labeling with SNAP-Cell® 647 SiR (New England Biolabs, catalog no. […]) and new dyes 065 and 066 containing benzylguanine SNAP-tag ligands were performed following the manufacturer's instructions. SNAP-tag is another popular system for labeling fusion proteins. SNAP-tag is more promiscuous towards its substrates than HaloTag, and thus it was anticipated that the relative fluorogenic behavior for each Si-bridge dye isomer would differ from the stark facial selectivity results seen above with Hoechst probes and HaloTag. Briefly, cells were incubated with 3 μM dye in cell culture medium for 30 min at 37° C. The cells were then washed three times with tissue culture medium and incubated in fresh medium for 30 minutes. The medium was replaced one more time to remove unreacted […] before imaging. […] Dyes fluorescing in the Cy5 channel were excited with the HeNe (633 nm) laser at a 15% intensity and detected through a 640-615 band pass filter and […] pinhole. […]

Where two headings read alike, the source gives them in different places.

Turning to `Cc1ccccc1C1=C2C=CC(=[N+](C)C)C=C2[Si]2(CCCC2)c2cc(N(C)C)ccc21` [Compound 028, N-(7-(Dimethylamino)-10-(o-tolyl)-3H-spiro[dibenzo[b,e]siline-5,1′-silolan]-3-ylidene)-N-methylmethanaminium], the “chemical stability in solution” value in data set [1] is reported as “chemically unstable in solution”. Where the note is “PBS”, the “Brightness (ϕ × ε)” value is recorded as 54,826, the “Em (nm)” value is 671 nm, the “Ex (nm)” value is on record as 653 nm and the “ε (M^−1 cm^−1)” value is on record as 158,000 M^−1 cm^−1. For the same compound, the “ϕ (quantum yield)” value (PBS, pH 7.4) came to 0.35.

Turning to `CN1CCN(c2ccc3[nH]c(-c4ccc5[nH]c(-c6ccc(OCCC[Si@]7(C)c8cc(N(C)C)ccc8[C@]8(OC(=O)c9ccccc98)c8ccc(N(C)C)cc87)cc6)nc5c4)nc3c2)CC1` [Compound 061, (5s,10s)-3,7-Bis(dimethylamino)-5-methyl-5-(3-(4-(5-(4-methylpiperazin-1-yl)-1H,1′H-[2,5′-bibenzo[d]imidazol]-2′-yl)phenoxy)propyl)-3′H,5H-spiro[dibenzo[b,e]siline-10,1′-isobenzofuran]-3′-one], in data set [2], the “Brightness (ε × ϕ)” value was 550, the “ε (M^−1 cm^−1)” value was 5,500 M^−1cm^−1, the “λem (nm)” value amounted to 672 nm and the “λex (nm)” value was determined as 658 nm. Besides, in data set [2], the ϕ was 0.10 and the brightness stood at 550 M⁻¹ cm⁻¹. The “labeling of the nucleus in live HeLa cells” value in data set [3] was “no labeling of the nucleus”. Besides, for the setting “0.1% SDS/PBS, 2 h incubation”, the “Brightness (ε × ϕ)” value is 10,965, the “ε (M^−1 cm^−1)” value is 25,500 M^−1cm^−1, the “λem (nm)” value was determined as 668 nm and the “λex (nm)” value is 650 nm. Further, for the setting “0.1% SDS/PBS, 2 h incubation”, the ϕ is given as 0.43. Moreover, for the setting “Hoechst probe in PBS”, the “Brightness (ε × ϕ)” value is recorded as 130, the “ε (M^−1 cm^−1)” value was 6,500 M^−1cm^−1, the “λex (nm)” value was determined as 660 nm and the ϕ amounted to 0.02.

`CN1CCN(c2ccc3[nH]c(-c4ccc5[nH]c(-c6ccc(OCCC[Si@]7(C)c8cc(N(C)C)ccc8[C@@]8(OC(=O)c9ccccc98)c8ccc(N(C)C)cc87)cc6)nc5c4)nc3c2)CC1` [Compound 062, (5r,10r)-3,7-Bis(dimethylamino)-5-methyl-5-(3-(4-(5-(4-methylpiperazin-1-yl)-1H,1′H-[2,5′-bibenzo[d]imidazol]-2′-yl)phenoxy)propyl)-3′H,5H-spiro[dibenzo[b,e]siline-10,1′-isobenzofuran]-3′-one]: in data set [2], the “Brightness (ε × ϕ)” value is listed as 10,400, the “ε (M^−1 cm^−1)” value is reported as 26,000 M^−1cm^−1, the “λem (nm)” value is recorded as 670 nm and the “λex (nm)” value amounted to 653 nm. In data set [2], the ϕ worked out at 0.40 and the brightness was 10 400 M^−1 cm^−1. Moreover, in data set [2] (in the presence of 30 mM hpDNA), the extinction coefficient is reported as 26 000 M^−1 cm^−1 and the quantum yield was determined as 0.40. Besides, the “labeling of the nucleus in live HeLa cells” value in data set [3] is given as “highly fluorogenic, labeling only the nucleus in live cells”. Besides, under “0.1% SDS/PBS, 2 h incubation”, the “Brightness (ε × ϕ)” value is 64,770, the “ε (M^−1 cm^−1)” value is on record as 127,000 M^−1cm^−1, the “λem (nm)” value came out at 670 nm and the “λex (nm)” value is given as 649 nm. Further, the ϕ (0.1% SDS/PBS, 2 h incubation) came to 0.51. Further, under “Hoechst probe in PBS”, the “Brightness (ε × ϕ)” value is 90, the “ε (M^−1 cm^−1)” value is 10,000 M^−1cm^−1 and the “λex (nm)” value is 663 nm.

For the compound `CN(C)c1ccc2c(c1)[Si@](C)(CCCSCC(=O)NCc1ccc(COc3nc(N)nc4[nH]cnc34)cc1)c1cc(N(C)C)ccc1[C@]21OC(=O)c2ccccc21` [Compound 065, N-(4-(((2-Amino-9H-purin-6-yl)oxy)methyl)benzyl)-2-((3-((5s,10s)-3,7-bis(dimethylamino)-5-methyl-3′-oxo-3′H,5H-spiro[dibenzo[b,e]siline-10,1′-isobenzofuran]-5-yl)propyl)thio)acetamide], the “labeling of SNAP-tag” value in data set [4] was “labeled SNAP-tag”.

For `CN(C)c1ccc2c(c1)[Si@](C)(CCCSCC(=O)NCc1ccc(COc3nc(N)nc4[nH]cnc34)cc1)c1cc(N(C)C)ccc1[C@@]21OC(=O)c2ccccc21` [Compound 066, N-(4-(((2-Amino-9H-purin-6-yl)oxy)methyl)benzyl)-2-((3-((5r,10r)-3,7-bis(dimethylamino)-5-methyl-3′-oxo-3′H,5H-spiro[dibenzo[b,e]siline-10,1′-isobenzofuran]-5-yl)propyl)thio)acetamide], in data set [4], the “labeling of SNAP-tag” value is “labeled SNAP-tag”.
